In ChEMBL document CHEMBL1909046, “DrugMatrix in vitro pharmacology data”:
Where a SMILES comes first, the peptide text is derived from it. Bridges are numbered along the chain shown (N, C = ends). [ ]: non-standard residue; d: D form. The star is where a group is joined. Ileψ(thiazoline)Cys = CC[C@H](C)[C@H](N)C1=N[C@H](C(=O)*)CS1; dOrn = NCCC[C@@H](N)C(=O)O

Columns and labels:
[1] = molecular target: Mitogen-activated protein kinase 14 (Homo sapiens, UniProt Q16539); set-up: species or system Escherichia coli;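 further: inhibition of p38alpha enzyme activity in a biochemical kinase assay, with myelin basic protein serving as substrate; in other assays of this panel Not Active means under 50% inhibition at 10 µM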
Chain of Mitogen-activated protein kinase 14 (Q16539 whole entry): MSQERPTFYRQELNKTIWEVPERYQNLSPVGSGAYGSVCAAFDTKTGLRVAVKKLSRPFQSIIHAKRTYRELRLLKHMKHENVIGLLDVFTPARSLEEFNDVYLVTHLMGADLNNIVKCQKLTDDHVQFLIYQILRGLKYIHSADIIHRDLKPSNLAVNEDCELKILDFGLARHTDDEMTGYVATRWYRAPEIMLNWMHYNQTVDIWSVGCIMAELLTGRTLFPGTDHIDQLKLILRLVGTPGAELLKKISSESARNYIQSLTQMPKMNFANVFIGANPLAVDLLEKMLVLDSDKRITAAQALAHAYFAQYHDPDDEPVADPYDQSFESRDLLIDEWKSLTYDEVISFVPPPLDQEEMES

[2] = molecular target: Vascular endothelial growth factor receptor 1 (Homo sapiens, UniProt P17948); assay type: cell-based; conditions: huvec; further: in other assays of this panel Not Active means under 50% inhibition at 10 µM
Chain of Vascular endothelial growth factor receptor 1 (P17948 whole entry): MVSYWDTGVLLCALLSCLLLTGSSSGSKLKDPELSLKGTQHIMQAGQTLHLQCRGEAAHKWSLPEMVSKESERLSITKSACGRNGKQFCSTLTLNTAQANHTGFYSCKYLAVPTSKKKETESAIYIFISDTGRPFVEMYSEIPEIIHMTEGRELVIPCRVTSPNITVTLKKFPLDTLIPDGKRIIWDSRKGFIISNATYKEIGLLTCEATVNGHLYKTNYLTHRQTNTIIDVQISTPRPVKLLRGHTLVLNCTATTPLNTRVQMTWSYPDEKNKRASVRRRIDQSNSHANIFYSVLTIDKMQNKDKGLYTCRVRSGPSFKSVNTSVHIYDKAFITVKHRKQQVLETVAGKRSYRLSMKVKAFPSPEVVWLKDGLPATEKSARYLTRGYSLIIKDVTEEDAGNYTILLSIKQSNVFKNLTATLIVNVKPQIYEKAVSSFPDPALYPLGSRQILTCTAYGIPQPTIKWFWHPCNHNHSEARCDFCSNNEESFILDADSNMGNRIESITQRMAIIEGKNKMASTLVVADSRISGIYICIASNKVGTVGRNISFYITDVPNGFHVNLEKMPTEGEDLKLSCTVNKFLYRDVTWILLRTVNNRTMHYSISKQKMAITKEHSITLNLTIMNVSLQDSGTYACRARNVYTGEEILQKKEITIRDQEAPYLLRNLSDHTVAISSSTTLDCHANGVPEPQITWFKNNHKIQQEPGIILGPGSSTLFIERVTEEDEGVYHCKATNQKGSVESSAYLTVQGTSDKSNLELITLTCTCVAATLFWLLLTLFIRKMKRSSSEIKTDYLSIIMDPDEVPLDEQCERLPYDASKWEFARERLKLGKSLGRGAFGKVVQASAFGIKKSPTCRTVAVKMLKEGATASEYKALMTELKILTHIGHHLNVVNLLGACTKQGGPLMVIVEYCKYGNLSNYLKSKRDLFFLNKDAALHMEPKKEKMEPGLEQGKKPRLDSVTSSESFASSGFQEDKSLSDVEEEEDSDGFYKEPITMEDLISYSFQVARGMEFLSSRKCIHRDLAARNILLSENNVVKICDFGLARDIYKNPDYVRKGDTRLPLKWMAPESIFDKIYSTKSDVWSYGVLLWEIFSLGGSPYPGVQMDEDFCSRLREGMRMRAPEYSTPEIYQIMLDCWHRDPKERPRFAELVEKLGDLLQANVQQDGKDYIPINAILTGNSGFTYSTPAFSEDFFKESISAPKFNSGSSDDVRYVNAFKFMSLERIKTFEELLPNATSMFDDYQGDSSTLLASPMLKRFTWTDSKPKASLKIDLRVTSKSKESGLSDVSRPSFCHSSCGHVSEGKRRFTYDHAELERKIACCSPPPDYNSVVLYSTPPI

[3] = molecular target: T1, Vasoactive intestinal polypeptide receptor 1 (Homo sapiens, UniProt P32241); assay type: cell membranes, Membrane; conditions: ht-29; further: in other assays of this panel Not Active means under 50% inhibition at 10 µM
T1 sequence (P32241 whole entry): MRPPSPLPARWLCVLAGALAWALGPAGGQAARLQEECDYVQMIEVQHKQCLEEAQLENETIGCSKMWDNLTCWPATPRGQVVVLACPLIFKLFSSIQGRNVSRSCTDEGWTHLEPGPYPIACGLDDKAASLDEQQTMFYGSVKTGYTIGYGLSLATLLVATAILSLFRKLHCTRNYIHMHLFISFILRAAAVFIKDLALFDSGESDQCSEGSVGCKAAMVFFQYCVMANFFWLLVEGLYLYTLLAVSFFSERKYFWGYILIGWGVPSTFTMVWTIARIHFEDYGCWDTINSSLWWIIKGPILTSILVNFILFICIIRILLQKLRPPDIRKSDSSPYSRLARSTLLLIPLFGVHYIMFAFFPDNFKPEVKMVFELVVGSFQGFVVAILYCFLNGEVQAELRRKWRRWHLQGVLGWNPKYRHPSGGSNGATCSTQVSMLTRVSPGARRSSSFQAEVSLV

D(1A) dopamine receptor = D(1A) dopamine receptor (Homo sapiens, UniProt P21728); assay: DRUGMATRIX: Dopamine D1 radioligand binding (ligand: [3H] SCH-23390); assay type: cell membranes, CHO, Membrane; conditions: cho; Not Active = under 50% inhibition at 10 µM
Chain of D(1A) dopamine receptor (P21728 whole entry): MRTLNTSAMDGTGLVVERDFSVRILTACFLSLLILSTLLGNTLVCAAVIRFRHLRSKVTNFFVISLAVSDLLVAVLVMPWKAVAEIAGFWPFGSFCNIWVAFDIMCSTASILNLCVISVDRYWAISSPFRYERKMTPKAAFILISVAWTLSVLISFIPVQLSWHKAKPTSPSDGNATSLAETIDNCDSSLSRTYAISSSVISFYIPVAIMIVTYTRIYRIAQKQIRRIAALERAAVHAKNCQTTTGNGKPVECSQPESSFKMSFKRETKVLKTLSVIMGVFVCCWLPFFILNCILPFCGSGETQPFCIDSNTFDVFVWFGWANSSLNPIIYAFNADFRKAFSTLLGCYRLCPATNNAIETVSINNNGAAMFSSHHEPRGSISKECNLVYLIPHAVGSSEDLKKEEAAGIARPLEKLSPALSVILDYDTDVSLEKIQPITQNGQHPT

Glycine receptor = Glycine receptor (Rattus norvegicus, UniProt P22771+P24524+P07727+P20781); assay type: cell membranes, Wistar, Spinal cord, Membrane; further: in other assays of this panel Not Active means under 50% inhibition at 10 µM
Estrogen receptor = molecular target: T2, Estrogen receptor (Homo sapiens, UniProt P03372); conditions: sf9; further: in other assays of this panel Not Active means under 50% inhibition at 10 µM
T2 sequence (P03372 whole entry): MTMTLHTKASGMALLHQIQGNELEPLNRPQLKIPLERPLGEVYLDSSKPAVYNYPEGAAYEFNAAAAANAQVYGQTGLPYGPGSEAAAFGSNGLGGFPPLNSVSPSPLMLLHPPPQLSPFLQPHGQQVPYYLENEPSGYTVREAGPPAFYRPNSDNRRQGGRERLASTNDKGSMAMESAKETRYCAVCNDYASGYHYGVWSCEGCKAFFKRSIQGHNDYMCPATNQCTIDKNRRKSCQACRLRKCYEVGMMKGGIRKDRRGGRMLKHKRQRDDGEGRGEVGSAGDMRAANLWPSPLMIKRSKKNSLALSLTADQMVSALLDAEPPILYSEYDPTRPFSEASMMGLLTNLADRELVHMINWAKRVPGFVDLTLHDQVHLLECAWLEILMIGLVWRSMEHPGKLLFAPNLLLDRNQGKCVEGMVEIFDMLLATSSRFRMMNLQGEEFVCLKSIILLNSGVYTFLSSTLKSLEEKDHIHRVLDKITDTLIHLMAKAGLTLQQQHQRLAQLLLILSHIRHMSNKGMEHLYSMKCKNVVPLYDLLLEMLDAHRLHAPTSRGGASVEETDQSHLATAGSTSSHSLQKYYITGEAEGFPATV

[4] = molecular target: Kappa-type opioid receptor (Homo sapiens, UniProt P41145); assay: DRUGMATRIX: Opiate kappa (OP2, KOP) radioligand binding (ligand: [3H] Diprenorphine); assay type: cell membranes, HEK293, Membrane; conditions: hek293; Not Active = under 50% inhibition at 10 µM
Chain of Kappa-type opioid receptor (P41145 whole entry): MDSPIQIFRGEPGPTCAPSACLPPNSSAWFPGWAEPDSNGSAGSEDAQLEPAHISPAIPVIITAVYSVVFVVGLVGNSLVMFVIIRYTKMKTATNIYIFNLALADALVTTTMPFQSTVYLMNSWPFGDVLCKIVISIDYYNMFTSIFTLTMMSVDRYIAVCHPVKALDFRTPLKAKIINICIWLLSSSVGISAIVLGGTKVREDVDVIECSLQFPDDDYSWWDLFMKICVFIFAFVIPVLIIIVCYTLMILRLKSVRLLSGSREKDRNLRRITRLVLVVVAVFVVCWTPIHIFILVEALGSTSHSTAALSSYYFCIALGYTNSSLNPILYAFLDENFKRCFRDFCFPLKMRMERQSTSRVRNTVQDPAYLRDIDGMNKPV

[5] = DRUGMATRIX: Glutamate, AMPA radioligand binding (ligand: [3H] AMPA); assay type: cell membranes, Rattus norvegicus, Wistar, Cerebral cortex, Membrane; conditions: Not Active = under 50% inhibition at 10 µM
Cytochrome P450 2A6 = molecular target: T3, Cytochrome P450 2A6 (Homo sapiens, UniProt P11509); conditions: bti-tn-5b1-4; further: in other assays of this panel Not Active means under 50% inhibition at 10 µM
T3 sequence (P11509 whole entry): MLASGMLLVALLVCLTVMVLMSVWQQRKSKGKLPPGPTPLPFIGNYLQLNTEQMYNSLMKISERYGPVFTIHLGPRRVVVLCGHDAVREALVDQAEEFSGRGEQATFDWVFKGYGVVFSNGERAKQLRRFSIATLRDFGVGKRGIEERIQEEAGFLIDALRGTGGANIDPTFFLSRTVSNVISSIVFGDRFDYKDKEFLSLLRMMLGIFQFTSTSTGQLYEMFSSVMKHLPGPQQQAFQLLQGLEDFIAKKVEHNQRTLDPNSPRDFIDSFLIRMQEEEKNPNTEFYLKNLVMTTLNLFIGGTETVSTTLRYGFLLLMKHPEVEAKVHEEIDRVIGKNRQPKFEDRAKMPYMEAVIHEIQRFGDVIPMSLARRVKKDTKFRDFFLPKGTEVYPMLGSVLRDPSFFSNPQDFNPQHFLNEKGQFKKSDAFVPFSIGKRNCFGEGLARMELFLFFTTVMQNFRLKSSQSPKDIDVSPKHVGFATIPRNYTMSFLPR

[6] = DRUGMATRIX: beta-Lactamase enzyme inhibition (substrate: Nitrocefin); set-up: species or system Bacillus cereus; conditions: Not Active = under 50% inhibition at 10 µM
Neutrophil elastase = molecular target: T4, Neutrophil elastase (Homo sapiens, UniProt P08246); assay type: tissue-based
T4 sequence (P08246 whole entry): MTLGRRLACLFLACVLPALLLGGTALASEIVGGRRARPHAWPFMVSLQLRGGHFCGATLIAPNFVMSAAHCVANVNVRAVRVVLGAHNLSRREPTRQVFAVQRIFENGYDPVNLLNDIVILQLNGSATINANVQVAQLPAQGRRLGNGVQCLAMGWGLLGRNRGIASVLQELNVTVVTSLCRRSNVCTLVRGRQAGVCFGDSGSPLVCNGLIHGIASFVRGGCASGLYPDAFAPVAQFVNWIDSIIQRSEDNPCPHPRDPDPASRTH

[7] = molecular target: Receptor tyrosine-protein kinase erbB-2 (Homo sapiens, UniProt P04626); assay: biochemical; assay type: cell-based, Insect cells
Chain of Receptor tyrosine-protein kinase erbB-2 (P04626 whole entry): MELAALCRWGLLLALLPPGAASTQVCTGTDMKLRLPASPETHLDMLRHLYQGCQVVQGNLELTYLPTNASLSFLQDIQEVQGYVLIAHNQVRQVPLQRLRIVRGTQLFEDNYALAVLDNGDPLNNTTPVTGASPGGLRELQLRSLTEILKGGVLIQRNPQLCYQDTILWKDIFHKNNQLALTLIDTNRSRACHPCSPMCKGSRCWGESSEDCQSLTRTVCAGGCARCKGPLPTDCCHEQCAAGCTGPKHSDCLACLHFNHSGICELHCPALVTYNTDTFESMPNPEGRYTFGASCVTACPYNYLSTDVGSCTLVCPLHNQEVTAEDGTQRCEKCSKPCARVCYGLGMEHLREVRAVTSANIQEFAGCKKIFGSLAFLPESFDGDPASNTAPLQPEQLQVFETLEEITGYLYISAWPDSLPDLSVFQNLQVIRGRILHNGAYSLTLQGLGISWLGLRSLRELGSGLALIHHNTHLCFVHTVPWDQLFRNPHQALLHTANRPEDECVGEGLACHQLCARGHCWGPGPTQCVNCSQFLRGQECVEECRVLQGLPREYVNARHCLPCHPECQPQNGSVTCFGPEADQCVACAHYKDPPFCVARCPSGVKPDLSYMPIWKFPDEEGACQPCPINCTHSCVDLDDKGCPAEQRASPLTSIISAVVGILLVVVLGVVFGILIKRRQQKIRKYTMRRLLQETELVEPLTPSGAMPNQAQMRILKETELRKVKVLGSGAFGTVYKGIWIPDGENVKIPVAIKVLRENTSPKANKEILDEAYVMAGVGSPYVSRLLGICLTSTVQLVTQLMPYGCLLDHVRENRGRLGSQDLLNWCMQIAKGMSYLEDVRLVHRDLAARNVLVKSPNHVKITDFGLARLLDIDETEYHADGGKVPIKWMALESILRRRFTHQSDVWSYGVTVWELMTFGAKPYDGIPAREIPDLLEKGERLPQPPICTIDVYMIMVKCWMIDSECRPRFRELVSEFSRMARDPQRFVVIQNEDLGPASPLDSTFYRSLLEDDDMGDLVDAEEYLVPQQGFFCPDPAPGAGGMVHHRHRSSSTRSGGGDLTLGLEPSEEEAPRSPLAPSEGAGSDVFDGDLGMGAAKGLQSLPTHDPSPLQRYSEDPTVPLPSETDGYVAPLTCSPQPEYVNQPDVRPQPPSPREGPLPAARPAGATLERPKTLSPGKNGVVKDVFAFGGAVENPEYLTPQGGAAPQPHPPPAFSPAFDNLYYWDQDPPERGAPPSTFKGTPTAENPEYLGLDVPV

Row | Compound | IC50 [1] | IC50 [2] | IC50 [3] | IC50 (D(1A) dopamine receptor) | IC50 (Glycine receptor) | IC50 (Estrogen receptor) | IC50 [4] | IC50 [5] | Ki [5] | IC50 (Cytochrome P450 2A6) | Ki (Cytochrome P450 2A6) | IC50 [6] | Ki [6] | IC50 (Neutrophil elastase) | IC50 ([7]; insect cells) | IC50 ([1]; read-out: IC50) | IC50 ([7]; read-out: IC50)
1 | CC[C@H](C)[C@H](N)C1=N[C@H](C(=O)N[C@@H](CC(C)C)C(=O)N[C@H](CCC(=O)O)C(=O)N[C@H](C(=O)N[C@H]2CCCCNC(=O)[C@H](CC(N)=O)NC(=O)[C@@H](CC(=O)O)NC(=O)[C@H](Cc3cnc[nH]3)NC(=O)[C@@H](Cc3ccccc3)NC(=O)[C@H]([C@@H](C)CC)NC(=O)[C@@H](CCCN)NC2=O)[C@@H](C)CC)CS1 [BACITRACIN] ({Ileψ(thiazoline)Cys}-L[dE]IK[dOrn]I[dF]H[dD]N; lactam 4-C) | Not Active | Not Active | Not Active | Not Active | Not Active | Not Active | Not Active | Not Active | Not Active | Not Active | Not Active | Not Active | Not Active | Not Active | Not Active |  | 
2 | OCc1ccccc1 [BENZYL ALCOHOL] | Not Active | Not Active | Not Active | Not Active | Not Active | Not Active | Not Active | Not Active | Not Active | Not Active | Not Active | Not Active | Not Active | Not Active | Not Active |  | 
3 | CC(C)(Oc1ccc(CCNC(=O)c2ccc(Cl)cc2)cc1)C(=O)O [BEZAFIBRATE] | Not Active | Not Active | Not Active | Not Active | Not Active | Not Active | Not Active | Not Active | Not Active | Not Active | Not Active | Not Active | Not Active | Not Active | Not Active |  | 
4 | Oc1c(Cl)cc(Cl)cc1Sc1cc(Cl)cc(Cl)c1O [BITHIONOL] |  | Not Active | Not Active | Not Active | Not Active | Not Active | Not Active | Not Active | Not Active | Not Active | Not Active | Not Active | Not Active | Not Active |  | 318 nM | 2150 nM
5 | Brc1ccccc1 [BROMOBENZENE] | Not Active | Not Active | Not Active | Not Active | Not Active | Not Active | Not Active | Not Active | Not Active | Not Active | Not Active | Not Active | Not Active | Not Active | Not Active |  | 
6 | CCCCOC(=O)c1ccc(N)cc1 [BUTAMBEN] | Not Active | Not Active | Not Active | Not Active | Not Active | Not Active | Not Active | Not Active | Not Active | Not Active | Not Active | Not Active | Not Active | Not Active | Not Active |  | 
7 | CC[C@@]1(O)C(=O)OCc2c1cc1n(c2=O)Cc2cc3ccccc3nc2-1 [CAMPTOTHECIN] | Not Active | Not Active | Not Active | Not Active | Not Active | Not Active | Not Active | Not Active | Not Active | Not Active | Not Active | Not Active | Not Active | Not Active | Not Active |  | 
8 | COCc1c(C(C)C)nc(C(C)C)c(/C=C/[C@@H](O)C[C@@H](O)CC(=O)O)c1-c1ccc(F)cc1 [CERIVASTATIN] | Not Active | Not Active | Not Active | Not Active | Not Active | Not Active | Not Active | Not Active | Not Active | Not Active | Not Active | Not Active | Not Active | Not Active | Not Active |  | 
9 | CC(=O)O[C@]1(C(C)=O)CC[C@H]2[C@@H]3C=C(Cl)C4=CC(=O)CC[C@]4(C)[C@H]3CC[C@@]21C [CHLORMADINONE ACETATE] | Not Active | Not Active | Not Active | Not Active | Not Active | Not Active | Not Active | Not Active | Not Active | Not Active | Not Active | Not Active | Not Active | Not Active | Not Active |  | 
10 | O=C1CCc2cc(OCCCCc3nnnn3C3CCCCC3)ccc2N1 [CILOSTAZOL] | Not Active | Not Active | Not Active | Not Active | Not Active | Not Active | Not Active | Not Active | Not Active | Not Active | Not Active | Not Active | Not Active | Not Active | Not Active |  | 
